The term solubility denotes how much of the substance goes into solution per volume. A low value points to a poorly soluble substance.

SMILES strings stand for the structures.

Data set [1] can be described thus: Aqueous solubility. Format: physicochemical. Particulars: water, 4° C.
A short description of data set [2]: Stability of a solution in pH 8 aqueous buffer on standing for 12 weeks at 50° C. The class given is physicochemical.
For data set [3] the following is noted: aqueous solution; Higuchi et al. 1955; cited from earlier work.

In the case of `CN1CCC[C@@H]1Cc1c[nH]c2ccc(CCS(=O)(=O)c3ccccc3)cc12` [Eletriptan hemisulphate], in data set [1], the solubility was above 100 mg/mL. The “number of degradation products detected by H.P.L.C.” value in data set [2] (H.P.L.C. techniques) was “At least five”. For the same compound, the hydrolytic stability entry in data set [2] (aqueous solutions) is “hydrolytically unstable”. For the same compound, in data set [2] (pH 8 aqueous buffer, 12 weeks at 50° C., read-out: eletriptan left (relative to the original weight)), the remaining at 2016 h is below 85%.
For `CCOC(=O)c1ccc(N)cc1` [benzocaine], the “effect of caffeine on hydrolytic degradation” value in data set [3] is on record as “substantially reduces the hydrolytic degradation”.

(Values after patent US6166025A, “Pharmaceutical compositions containing eletriptran hemisulphate and caffeine” (Pfizer Inc., priority 1997, dated 2000).)
